This note sets out measurements from patent publication US12128028B2, “Heterocyclic sulfonamide derivatives and pharmaceutical uses thereof” (METRION BIOSCIENCES LIMITED, priority 2018, dated 2024).

This assay has as its target human Kv1.3 (Homo sapiens (Human), UniProt P22001). Briefly: Kv1.3 potency evaluation, automated patch clamp electrophysiology (QPatch HT) in CHO-Kv1.3 cells. The format is cell-based. Conditions: whole-cell QPatch HT, % inhibition of charge, step to +30 mV, four concentrations, N≥3 cells, read-out: hKv1.3 IC50. A digest of the protocol:
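Automated whole-cell patch clamp in CHO cells stably expressing human Kv1.3; steps from −80 to +30 mV (500 ms) at 0.067 Hz. Four cumulative concentrations after vehicle (0.1-0.3% DMSO); charge inhibition vs vehicle fitted by four-parameter logistic for IC50, N≥3 cells.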

The IC50 is the concentration that inhibits the measured activity by half.

Chain of human Kv1.3 (P22001 whole entry): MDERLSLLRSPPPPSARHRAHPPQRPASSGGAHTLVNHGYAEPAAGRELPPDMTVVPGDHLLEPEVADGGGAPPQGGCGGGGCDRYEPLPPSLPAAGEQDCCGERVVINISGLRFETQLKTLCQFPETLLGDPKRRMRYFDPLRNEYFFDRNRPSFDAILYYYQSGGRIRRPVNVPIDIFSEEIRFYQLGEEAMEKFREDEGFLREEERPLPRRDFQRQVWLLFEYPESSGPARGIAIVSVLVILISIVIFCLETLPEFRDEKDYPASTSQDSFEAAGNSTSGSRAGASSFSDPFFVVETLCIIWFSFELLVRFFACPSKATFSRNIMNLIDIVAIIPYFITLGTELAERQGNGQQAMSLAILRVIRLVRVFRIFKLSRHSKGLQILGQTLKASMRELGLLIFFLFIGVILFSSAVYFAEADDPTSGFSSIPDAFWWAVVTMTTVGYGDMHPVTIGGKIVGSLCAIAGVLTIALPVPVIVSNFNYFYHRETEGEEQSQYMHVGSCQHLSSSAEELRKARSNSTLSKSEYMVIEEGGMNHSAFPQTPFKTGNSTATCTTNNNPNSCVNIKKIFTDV

For the compound `CN(C(=O)[C@@H]1NC(C23CC(N(Cc4ccc(Cl)c(F)c4)S(=O)(=O)c4ccccc4)(C2)C3)=NC1(C)C)C1CC(C(F)F)C1` (mixture of isomers) [Example 78], the half-maximal inhibitory concentration (IC50) was determined as 60 nM.

As to `CC1(C)N=C(C23CC(N(Cc4ccc(Cl)cc4)S(=O)(=O)c4ccco4)(C2)C3)N[C@H]1C(=O)NCCC(F)(F)F` (mixture of isomers) [Example 41], the half-inhibitory concentration (IC50) was found to be 46 nM.

As for `CC1(C)N=C(C23CC(N(Cc4ccc(Cl)c(Cl)c4)S(=O)(=O)CCCF)(C2)C3)N[C@H]1C(=O)NCCC(F)(F)F` (mixture of isomers) [Example 128], the IC50 was found to be 77 nM.

`CC1(C)N=C(C23CC(N(Cc4ccc(Cl)cc4)S(=O)(=O)c4cccc(C#N)c4)(C2)C3)N[C@H]1C(=O)NCCC(F)(F)F` (mixture of isomers) [Example 70]: the half-maximal inhibitory concentration (IC50) amounted to 56 nM.

Take `CC1(C)N=C(C23CC(N(Cc4ccc(Cl)c(F)c4)S(=O)(=O)c4ccccc4)(C2)C3)N[C@H]1C(=O)NCC1(F)CCC1` (mixture of isomers) [Example 36]: the IC50 was found to be 45 nM.

In the case of `CC1(C)N=C(C23CC(N(Cc4ccc(Cl)c(F)c4)S(=O)(=O)c4ccccc4)(C2)C3)N[C@H]1C(=O)NCC1CC1(F)F` (mixture of isomers) [Example 14], the IC50 was determined as 33 nM.

Consider `CC1(C)N=C(C23CC(N(Cc4ccc(Cl)c(Cl)c4)S(=O)(=O)c4ccccc4)(C2)C3)N[C@H]1C(=O)N1CCC(F)(F)C2(CC2)C1` (mixture of isomers) [Example 167], for which the IC50 was 99 nM.

On to `CC(F)(F)CCS(=O)(=O)N(Cc1ccc(Cl)c(Cl)c1)C12CC(C3=NC(C)(C)[C@H](C(=O)NCCC(F)(F)F)N3)(C1)C2` (mixture of isomers) [Example 150], for which the IC50 amounted to 90 nM.

Regarding `CC(F)(F)CCS(=O)(=O)N(Cc1ccc(Cl)c(F)c1)C12CC(C3=NC(C)(C)[C@H](C(=O)NCCC(F)(F)F)N3)(C1)C2` (mixture of isomers) [Example 111], the IC50 came out at 72 nM.

On to `CC1(C)N=C(C23CC(N(Cc4ccc(Cl)c(F)c4)S(=O)(=O)c4ccccc4)(C2)C3)N[C@H]1C(=O)N1CCOCC1` (mixture of isomers) [Example 257], for which the IC50 was determined as 348 nM.

On to `CC1(C)N=C(C23CC(N(Cc4ccc(Cl)cc4F)S(=O)(=O)c4ccccc4)(C2)C3)N[C@H]1C(=O)NCCC(F)(F)F` (mixture of isomers) [Example 9], for which the IC50 was 28 nM.

As to `CC1(NC(=O)C2NC(C34CC(N(Cc5ccc(C(F)(F)F)cc5)S(=O)(=O)c5ccc(F)cc5)(C3)C4)=NC2(C)C)CCC1` (stereo not shown) [Example 232], the IC50 is 208 nM.

For the compound `C[C@@H]1CC(F)(F)CN1C(=O)[C@@H]1NC(C23CC(N(Cc4ccc(Cl)c(F)c4)S(=O)(=O)c4ccccc4)(C2)C3)=NC1(C)C` (mixture of isomers) [Example 27], the half-maximal inhibitory concentration (IC50) worked out at 40 nM.

`CC1(C)N=C(C23CC(N(Cc4ccc(C(F)(F)F)c(F)c4)S(=O)(=O)c4ccccc4)(C2)C3)N[C@H]1C(=O)NCCC(F)(F)F` (mixture of isomers) [Example 197]: the IC50 was determined as 126 nM.

As to `C[C@H]1CC(F)(F)CN1C(=O)[C@@H]1NC(C23CC(N(Cc4ccc(Cl)c(F)c4)S(=O)(=O)c4ccccc4)(C2)C3)=NC1(C)C` (mixture of isomers) [Example 44], the IC50 is 46 nM.

Turning to `CC1(C)N=C(C23CC(N(Cc4ccc(Cl)c(F)c4)S(=O)(=O)c4ccccc4)(C2)C3)N[C@H]1C(=O)N1CCC(F)(F)C1` (mixture of isomers) [Example 91], the IC50 was 64 nM.

As to `CC1N=C(C23CC(N(Cc4ccc(C(F)(F)F)cc4)S(=O)(=O)c4ccc(F)cc4)(C2)C3)N[C@@]1(C)C(=O)NCCC(F)(F)F` (mixture of isomers) [Example 211], the IC50 was 148 nM.

Consider `CC1N=C(C23CC(N(Cc4ccc(C(F)(F)F)cc4)S(=O)(=O)c4ccc(F)cc4)(C2)C3)N[C@@]1(C)C(=O)NCC1CCC1` (mixture of isomers) [Example 245], for which the IC50 worked out at 253 nM.

Consider `CC1(C)N=C(C23CC(N(Cc4ccc(Cl)cc4)S(=O)(=O)CCC(F)F)(C2)C3)N[C@H]1C(=O)NCCC(F)(F)F` (mixture of isomers) [Example 137], for which the 50% inhibitory concentration (IC50) came out at 82 nM.

As for `CC1(C)N=C(C23CC(N(Cc4ccc(Cl)cc4)S(=O)(=O)C4CCC4)(C2)C3)N[C@H]1C(=O)NCCC(F)(F)F` (mixture of isomers) [Example 170], the 50% inhibitory concentration (IC50) came out at 101 nM.

For the compound `CN(CC1CC(F)(F)C1)C(=O)[C@@H]1NC(C23CC(N(Cc4ccc(Cl)c(F)c4)S(=O)(=O)c4ccccc4)(C2)C3)=NC1(C)C` (mixture of isomers) [Example 133], the IC50 is 78 nM.

`CC1(C)N=C(C23CC(N(Cc4ccc(Cl)c(Cl)c4)S(=O)(=O)c4ccccc4)(C2)C3)N[C@H]1C(=O)NC1CC(F)(F)C1` (mixture of isomers) [Example 115]: the IC50 is 73 nM.

For `CC1(C)N=C(C23CC(N(Cc4ccc(Cl)c(F)c4)S(=O)(=O)c4ccccc4)(C2)C3)N[C@H]1C(=O)N1CCCC(F)(F)C1` (mixture of isomers) [Example 98], the IC50 amounted to 66 nM.

Regarding `CC1(C)N=C(C23CC(N(Cc4ccc(Cl)cc4)S(=O)(=O)c4ccccc4)(C2)C3)N[C@H]1C(=O)NC12CC(C1)C2` (mixture of isomers) [Example 12], the IC50 came out at 30 nM.

With `CC1(C)N=C(C23CC(N(Cc4ccc(Cl)c(Cl)c4)S(=O)(=O)c4ccccc4)(C2)C3)N[C@H]1C(=O)N1CCC(F)(F)CC1` (mixture of isomers) [Example 86], the IC50 was determined as 62 nM.

On to `CC1(C)N=C(C23CC(N(Cc4ccc(Cl)c(F)c4)S(=O)(=O)c4ccccc4)(C2)C3)N[C@H]1C(=O)NC(C1CC1)C1CC1` (mixture of isomers) [Example 168], for which the IC50 turned out to be 99 nM.

In the case of `CC(C)(CC(F)(F)F)NC(=O)[C@@H]1NC(C23CC(N(Cc4ccc(Cl)c(F)c4)S(=O)(=O)c4ccccc4)(C2)C3)=NC1(C)C` (mixture of isomers) [Example 141], the IC50 amounted to 84 nM.

As for `CC1(F)CCN(C(=O)[C@@H]2NC(C34CC(N(Cc5ccc(Cl)c(F)c5)S(=O)(=O)c5ccccc5)(C3)C4)=NC2(C)C)C1` (mixture of isomers) [Example 127], the IC50 came to 77 nM.

As to `CC1(C)N=C(C23CC(N(Cc4ccc(Cl)c(F)c4)S(=O)(=O)c4ccccc4)(C2)C3)N[C@H]1C(=O)NCCC(F)F` (mixture of isomers) [Example 79], the IC50 came to 60 nM.

As for `CC1(C)N=C(C23CC(N(Cc4ccc(Cl)c(F)c4)S(=O)(=O)c4ccccc4)(C2)C3)N[C@H]1C(=O)NC[C@H]1CC1(F)F` (mixture of isomers) [Example 22], the IC50 came out at 39 nM.

Regarding `CC1(C)N=C(C23CC(N(Cc4ccc(Cl)c(F)c4)S(=O)(=O)c4ccccc4)(C2)C3)N[C@H]1C(=O)NC1(CC(F)(F)F)CC1` (mixture of isomers) [Example 118], the IC50 was 74 nM.

In the case of `CC1(C)N=C(C23CC(N(Cc4ccc(Cl)c(Cl)c4)S(=O)(=O)c4ccccc4)(C2)C3)N[C@H]1C(=O)N1CCC2(COC2)C1` (mixture of isomers) [Example 283], the IC50 was 749 nM.

`CC(C)CS(=O)(=O)N(Cc1ccc(Cl)cc1)C12CC(C3=NC(C)(C)[C@H](C(=O)NCCC(F)(F)F)N3)(C1)C2` (mixture of isomers) [Example 54]: the IC50 is 50 nM.

For the compound `CC1(C)N=C(C23CC(N(Cc4ccc(Cl)cc4)S(=O)(=O)c4ccccc4)(C2)C3)N[C@H]1C(=O)NCC1CC(F)(F)C1` (mixture of isomers) [Example 37], the IC50 amounted to 45 nM.
